Measurements as given in ChEMBL document CHEMBL5214985, “meta-Ureidophenoxy-1,2,3-triazole hybrid as a novel scaffold for promising HepG2 hepatocellular carcinoma inhibitors: Synthesis, biological evaluation and molecular docking studies” (Bioorg Med Chem, 2022).
Active and inactive are the calls of the source. No cut-off for these calls is given here.

Experiments:
[1] = tested on: HepG2; experiment: Anticancer activity against human HepG2 cells assessed as inhibition of cell viability incubated for 72 hrs by MTT assay; type: functional, cell-based; settings: HepG2, 72 h
[2] = Cytotoxicity against human MRC5 cells assessed as inhibition of cell viability incubated for 72 hrs by MTT assay; type: toxicity, cell-based
[3] = Selectivity index, ratio of IC50 for cytotoxicity against human MRC5 cells to IC50 for anticancer activity against human HepG2 cells; type: toxicity, cell-based; settings: MRC5 cells versus HepG2 cells, read-out: Ratio IC50
[4] = tested on: HepG2; experiment: Potency index, ratio of Sorafenib IC50 to test compound IC50 for anticancer activity against human HepG2 cells assessed as inhibition of cell viability incubated for 72 hrs by MTT assay; type: functional
[5] = tested on: HepG2; experiment: Induction of apoptosis in human HepG2 cells at 5 uM incubated for 72 hrs by Annexin V-FITC/PI staining based flow cytometry; type: functional, cell-based

Row | IC50 [1] [µM] | SMILES | IC50 at 72 h [2] [µM] | selectivity ratio [3] | Ratio IC50 [4] | Activity [5]
1 | 2.87 | O=C(Nc1cccc(OCc2cn(-c3ccccc3I)nn2)c1)Nc1ccc(Cl)c(C(F)(F)F)c1 | 21.9 | 7.61 |  | 
2 | 4.78 | O=C(Nc1cccc(OCc2cn(-c3cccc(I)c3)nn2)c1)Nc1ccc(Cl)c(C(F)(F)F)c1 |  |  |  | 
3 | 2.76 | N#Cc1cccc(-n2cc(COc3cccc(NC(=O)Nc4ccc(Cl)c(C(F)(F)F)c4)c3)nn2)c1 | 2.96 | 1.07 |  | 
4 | 1.04 | O=C(Nc1cccc(OCc2cn(-c3cccc(Br)c3)nn2)c1)Nc1ccc(Cl)c(C(F)(F)F)c1 | 11.9 | 11.5 | 5 | Active
5 | 1.31 | COc1cccc(-n2cc(COc3cccc(NC(=O)Nc4ccc(Cl)c(C(F)(F)F)c4)c3)nn2)c1 | 8.57 | 6.55 |  | 
6 | 2.47 | CC(C)c1ccc(-n2cc(COc3cccc(NC(=O)Nc4ccc(Cl)c(C(F)(F)F)c4)c3)nn2)cc1 |  |  |  | 
7 | 11.3 | COc1ccccc1-n1cc(COc2cccc(NC(=O)Nc3ccc(Cl)c(C(F)(F)F)c3)c2)nn1 |  |  |  | 
8 | 1.95 | CCc1ccc(-n2cc(COc3cccc(NC(=O)Nc4ccc(Cl)c(C(F)(F)F)c4)c3)nn2)cc1 |  |  |  | 
9 | 7.27 | Cc1cccc(-n2cc(COc3cccc(NC(=O)Nc4ccc(Cl)c(C(F)(F)F)c4)c3)nn2)c1 |  |  |  | 
10 | 2.98 | N#Cc1ccc(-n2cc(COc3cccc(NC(=O)Nc4ccc(Cl)c(C(F)(F)F)c4)c3)nn2)cc1 |  |  |  | 
11 | 3.44 | Cc1ccccc1-n1cc(COc2cccc(NC(=O)Nc3ccc(Cl)c(C(F)(F)F)c3)c2)nn1 |  |  |  | 
12 |  | CNC(=O)c1cc(Oc2ccc(NC(=O)Nc3ccc(Cl)c(C(F)(F)F)c3)cc2)ccn1 [SORAFENIB] | 11.1 |  |  | Active
13 | 1.9 | CC(C)c1ccccc1-n1cc(COc2cccc(NC(=O)Nc3ccc(Cl)c(C(F)(F)F)c3)c2)nn1 |  |  |  | 
14 | 1.78 | O=C(Nc1cccc(OCc2cn(-c3ccccc3)nn2)c1)Nc1ccc(Cl)c(C(F)(F)F)c1 | 18.4 | 10.3 | 2.8 | 
15 | 2.81 | O=C(Nc1cccc(OCc2cn(-c3ccccc3Br)nn2)c1)Nc1ccc(Cl)c(C(F)(F)F)c1 |  |  |  | 
16 | 3.25 | CC(C)c1cccc(-n2cc(COc3cccc(NC(=O)Nc4ccc(Cl)c(C(F)(F)F)c4)c3)nn2)c1 | 21.4 | 6.58 |  | 

Row | IC50 [1] [µM] | SMILES | IC50 at 72 h [2] [µM] | selectivity ratio [3] | Ratio IC50 [4] | Activity [5]
17 | 2.73 | O=C(Nc1cccc(OCc2cn(-c3ccc(Br)cc3)nn2)c1)Nc1ccc(Cl)c(C(F)(F)F)c1 | 11 | 4.03 |  | 
18 | 2.02 | O=C(Nc1cccc(OCc2cn(-c3cccc(Cl)c3)nn2)c1)Nc1ccc(Cl)c(C(F)(F)F)c1 |  |  |  | 
19 | 1.52 | O=C(Nc1cccc(OCc2cn(-c3ccccc3F)nn2)c1)Nc1ccc(Cl)c(C(F)(F)F)c1 |  |  |  | 
20 | 1.96 | O=C(Nc1cccc(OCc2cn(-c3ccccc3Cl)nn2)c1)Nc1ccc(Cl)c(C(F)(F)F)c1 |  |  |  | 
21 | 2.12 | O=C(Nc1cccc(OCc2cn(-c3cccc(F)c3)nn2)c1)Nc1ccc(Cl)c(C(F)(F)F)c1 |  |  |  | 
22 | 5.43 | Cc1ccc(-n2cc(COc3cccc(NC(=O)Nc4ccc(Cl)c(C(F)(F)F)c4)c3)nn2)cc1 |  |  |  | 
23 | 1.97 | N#Cc1ccccc1-n1cc(COc2cccc(NC(=O)Nc3ccc(Cl)c(C(F)(F)F)c3)c2)nn1 | 17.5 | 8.89 |  | 
24 | 37.9 | CCc1cccc(-n2cc(COc3cccc(NC(=O)Nc4ccc(Cl)c(C(F)(F)F)c4)c3)nn2)c1 |  |  |  | 
25 | 2.69 | O=C(Nc1cccc(OCc2cn(-c3ccc(I)cc3)nn2)c1)Nc1ccc(Cl)c(C(F)(F)F)c1 | 6.84 | 2.55 |  | 
26 | 4.68 | COc1ccc(-n2cc(COc3cccc(NC(=O)Nc4ccc(Cl)c(C(F)(F)F)c4)c3)nn2)cc1 |  |  |  | 
27 | 3.53 | CCc1ccccc1-n1cc(COc2cccc(NC(=O)Nc3ccc(Cl)c(C(F)(F)F)c3)c2)nn1 |  |  |  | 
28 | 2.49 | O=C(Nc1cccc(OCc2cn(-c3ccc(Cl)cc3)nn2)c1)Nc1ccc(Cl)c(C(F)(F)F)c1 |  |  |  | 
29 | 1.27 | O=C(Nc1cccc(OCc2cn(-c3cccc(C(F)(F)F)c3)nn2)c1)Nc1ccc(Cl)c(C(F)(F)F)c1 |  |  |  | 
30 | 1.8 | O=C(Nc1cccc(OCc2cn(-c3ccc(C(F)(F)F)cc3)nn2)c1)Nc1ccc(Cl)c(C(F)(F)F)c1 |  |  |  | 
31 | 1.35 | O=C(Nc1cccc(OCc2cn(-c3ccc(F)cc3)nn2)c1)Nc1ccc(Cl)c(C(F)(F)F)c1 | 4.74 | 3.52 |  | 
32 | 2.32 | O=C(Nc1cccc(OCc2cn(-c3ccccc3C(F)(F)F)nn2)c1)Nc1ccc(Cl)c(C(F)(F)F)c1 | 8.23 | 3.55 |  | 
